Experimental findings from ChEMBL document CHEMBL1126481, “Low molecular weight neurokinin NK2 antagonists” (Bioorg Med Chem Lett, 1993) are described below.

The target in data set [1] is T1, Substance-K receptor (Rattus norvegicus) (UniProt P16610).
T1 sequence (whole entry): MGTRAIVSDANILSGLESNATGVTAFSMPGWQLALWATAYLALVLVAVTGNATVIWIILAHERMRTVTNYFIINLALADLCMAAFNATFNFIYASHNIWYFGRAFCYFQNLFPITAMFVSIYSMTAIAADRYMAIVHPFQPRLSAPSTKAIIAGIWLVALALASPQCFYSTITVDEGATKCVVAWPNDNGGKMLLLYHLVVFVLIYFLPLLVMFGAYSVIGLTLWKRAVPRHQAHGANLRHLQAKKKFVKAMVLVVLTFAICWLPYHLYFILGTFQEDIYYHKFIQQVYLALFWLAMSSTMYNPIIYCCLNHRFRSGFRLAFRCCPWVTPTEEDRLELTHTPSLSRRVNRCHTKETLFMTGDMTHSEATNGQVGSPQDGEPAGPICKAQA
The data set can be described thus: In vitro for antagonism against neurokinin NK2 receptor in rat colon muscularis mucosae. The format is functional, tissue-based. As to conditions: Muscularis mucosa.

For data set [2], the target named is T1, Substance-K receptor (Rattus norvegicus). Nature of the data set: The compound was tested in vitro for antagonism against Tachykinin receptor 2 in rat colon muscularis mucosae. Format: functional, tissue-based. As to conditions: Muscularis mucosa.
Data set [3] addresses T2, Substance-K receptor (Cavia porcellus) (UniProt Q64077).
T2 sequence (whole entry): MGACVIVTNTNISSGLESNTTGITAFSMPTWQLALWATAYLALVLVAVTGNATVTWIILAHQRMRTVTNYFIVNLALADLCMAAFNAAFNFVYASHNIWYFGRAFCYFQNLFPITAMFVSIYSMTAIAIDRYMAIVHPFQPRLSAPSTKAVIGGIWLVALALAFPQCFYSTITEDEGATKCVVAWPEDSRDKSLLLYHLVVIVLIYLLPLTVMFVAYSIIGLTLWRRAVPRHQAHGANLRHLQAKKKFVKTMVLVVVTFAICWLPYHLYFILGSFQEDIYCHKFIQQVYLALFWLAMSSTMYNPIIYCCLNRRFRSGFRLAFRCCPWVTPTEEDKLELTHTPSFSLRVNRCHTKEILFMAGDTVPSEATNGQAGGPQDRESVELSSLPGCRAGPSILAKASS
The data set can be described thus: The compound was tested in vitro for antagonism against Tachykinin receptor 2 in isolated guinea pig trachea. The format is functional, tissue-based.

The species named for the next data set is Oryctolagus cuniculus. Nature of the data set: Tested for antagonistic activity of compound in endothelium-deprived rabbit pulmonary artery. As to conditions: read-out: pA2 (converted). The format is functional.
Data set [4] is described as follows: Biological half life when administered at 5 umol/kg intravenously to guinea pig in GR-64349 antagonism. Format: ADME, organism-based, Cavia porcellus. As to conditions: in vivo, iv.
Data set [5] has as its target T2, Substance-K receptor (Cavia porcellus). The data set can be described thus: The compound was tested […] for antagonism against neurokinin NK2 receptor in isolated guinea pig trachea. The format is functional.
The target of data set [6] is Substance-P receptor (Cavia porcellus) (UniProt P30547). Nature of the data set: The compound was tested […] for antagonism against neurokinin NK1 receptor in isolated guinea pig trachea. Format: functional.
Substance-P receptor (Cavia porcellus), sequence (P30547 whole entry): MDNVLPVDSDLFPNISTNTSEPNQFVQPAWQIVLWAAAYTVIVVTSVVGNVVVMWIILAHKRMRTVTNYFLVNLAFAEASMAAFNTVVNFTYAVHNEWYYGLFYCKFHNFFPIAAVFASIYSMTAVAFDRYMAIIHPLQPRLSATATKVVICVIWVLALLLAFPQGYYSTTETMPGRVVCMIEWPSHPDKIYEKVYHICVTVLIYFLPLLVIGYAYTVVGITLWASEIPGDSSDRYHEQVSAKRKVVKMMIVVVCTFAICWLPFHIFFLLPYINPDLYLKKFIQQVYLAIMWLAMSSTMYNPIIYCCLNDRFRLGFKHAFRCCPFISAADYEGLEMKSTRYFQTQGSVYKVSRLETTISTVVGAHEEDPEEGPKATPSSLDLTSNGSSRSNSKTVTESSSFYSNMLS
Data set [7] in a line: Biological half life when administered at 0.1 umol/kg intravenously to guinea pig in GR-64349 antagonism. As to conditions: in vivo, iv. The format is ADME, organism-based, Cavia porcellus.

The structures appear in SMILES notation. Peptide text beside a SMILES is read from it. Some results are limits rather than exact numbers.

On to `C[C@H](NC(=O)CNC(=O)c1ccccc1)C(=O)N[C@H](Cc1c[nH]c2ccccc12)C(=O)N[C@@H](Cc1ccccc1)C(=O)N(C)C`, for which the pKB – broadly, the negative decadic logarithm of the KB, by convention in mol/L – in data set [1] was determined as 8.87.

Take `C[C@H](NC(=O)c1ccccc1)C(=O)N[C@@H](C)C(=O)N[C@H](Cc1c[nH]c2ccccc12)C(=O)N[C@@H](Cc1ccccc1)C(=O)O`: the pKB in data set [1] was found to be 6.6.

The compound `C[C@H](NC(=O)c1ccccc1)C(=O)N[C@@H](C)C(=O)NCCc1c[nH]c2ccccc12` returned a pKB in data set [1] of 6.02.

In the case of `CC(Cc1c[nH]c2ccccc12)NC(=O)[C@H](C)NC(=O)[C@H](C)NC(=O)c1ccccc1` (some centres not stated), the pKB in data set [1] was below 5; in data set [2] it was 6.66; in data set [3], 7.4.

As for `CC(=O)NC1(c2ccccc2)CCN(CC[C@H](CN(C)C(=O)c2ccccc2)c2ccc(Cl)c(Cl)c2)CC1` [SAREDUTANT], the Kb in the data set filed under Oryctolagus cuniculus was 0.0501 nM.

Take `C[C@H](NC(=O)c1ccccc1)C(=O)N[C@@H](C)C(=O)N[C@H](C#N)Cc1c[nH]c2ccccc12`: the half-life (in general, the time in which the quantity being followed falls by half) in data set [4] came out at 20 min. The pKB in data set [5] came out at 7.4; in data set [1], 6.8.

As to `C[C@H](NC(=O)c1ccccc1)C(=O)N[C@@H](C)C(=O)N[C@H](Cc1c[nH]c2ccccc12)C(=O)N(C)C`, the pKB in data set [1] came to 6.45.

The compound `CC(C)CCN(C)C(=O)[C@@H](Cc1c[nH]c2ccccc12)NC(=O)[C@H](C)NC(=O)[C@H](C)NC(=O)c1ccccc1` returned a pKB in data set [1] of 8.

As for `C[C@H](NC(=O)c1ccccc1)C(=O)N[C@@H](C)C(=O)N[C@H](Cc1c[nH]c2ccccc12)C(=O)N[C@@H](Cc1ccccc1)C(=O)N(C)C`, in data set [1], the pKB is 8.56.

In data set [4], `CC(C)CCN(C)C(=O)[C@@H](Cc1c[nH]c2ccccc12)NC(=O)[C@H](C)NC(=O)c1c[nH]c(-c2ccccc2)n1` had a half-life of 140 min. Moreover, the pKB in data set [6] was 4.9; in data set [5], 7.9; in data set [1], 7.64.

Consider `C[C@H](NC(=O)c1ccccc1)C(=O)N[C@@H](C)C(=O)N[C@H](Cc1c[nH]c2ccccc12)C(=O)N(C)CCc1ccccc1`, for which the pKB in data set [1] was found to be 7.4.

For the compound `C[C@H](NC(=O)CNC(=O)C1CCCCC1)C(=O)N[C@H](Cc1c[nH]c2ccccc12)C(=O)N[C@@H](Cc1ccccc1)C(=O)N(C)C` (HELM PEPTIDE1{[O=C(C1CCCCC1)[*:2]].G.A.[dW].F.[CN(C)[*:1]]}$$$$V2.0), in data set [7], the half-life came out at 26 min. Moreover, the pKB in data set [6] worked out at 5.1; in data set [5], 9.3; in data set [1] it was 9.05.
